Legend:
[1] = Inhibition of human beta-glucosidase
Oryza sativa = test: Inhibition of rice alpha-glucosidase assessed as reduction of p-nitrophenol release using p-nitrophenyl glycoside as substrate at 1000 uM by spectrophotometric analysis relative to control
[2] = molecular target: T1, Tissue alpha-L-fucosidase (Bos taurus) (UniProt Q2KIM0); test: Inhibition of bovine kidney alpha-L-fucosidase assessed as reduction of p-nitrophenol release using p-nitrophenyl glycoside as substrate at 1000 uM by spectrophotometric analysis relative to control
T1 sequence (whole entry): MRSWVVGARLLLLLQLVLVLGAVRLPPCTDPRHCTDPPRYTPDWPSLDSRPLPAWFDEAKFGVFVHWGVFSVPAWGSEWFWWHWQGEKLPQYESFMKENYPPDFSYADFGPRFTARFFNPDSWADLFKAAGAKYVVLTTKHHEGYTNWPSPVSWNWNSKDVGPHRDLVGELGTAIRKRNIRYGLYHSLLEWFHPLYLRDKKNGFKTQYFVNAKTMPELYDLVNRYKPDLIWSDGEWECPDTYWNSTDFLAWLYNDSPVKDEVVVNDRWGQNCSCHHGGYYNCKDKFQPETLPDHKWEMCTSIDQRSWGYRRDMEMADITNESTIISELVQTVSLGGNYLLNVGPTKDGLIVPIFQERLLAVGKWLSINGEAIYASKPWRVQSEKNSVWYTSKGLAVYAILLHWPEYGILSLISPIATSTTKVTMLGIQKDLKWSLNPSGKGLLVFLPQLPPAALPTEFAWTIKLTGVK

Bos taurus [3] = species: Bos taurus; test: Inhibition of bovine liver beta-glucuronidase assessed as reduction of p-nitrophenol release using p-nitrophenyl-glycoside as substrate at 1000 uM by spectrophotometric analysis relative to control
[4] = molecular target: Beta-glucuronidase (Escherichia coli (strain K12)) (UniProt P05804); test: Inhibition of Escherichia coli beta-glucuronidase assessed as reduction of p-nitrophenol release using p-nitrophenyl-glycoside as substrate at 1000 uM by spectrophotometric analysis relative to control
Sequence of Beta-glucuronidase (Escherichia coli (strain K12)) (P05804 whole entry, looked up): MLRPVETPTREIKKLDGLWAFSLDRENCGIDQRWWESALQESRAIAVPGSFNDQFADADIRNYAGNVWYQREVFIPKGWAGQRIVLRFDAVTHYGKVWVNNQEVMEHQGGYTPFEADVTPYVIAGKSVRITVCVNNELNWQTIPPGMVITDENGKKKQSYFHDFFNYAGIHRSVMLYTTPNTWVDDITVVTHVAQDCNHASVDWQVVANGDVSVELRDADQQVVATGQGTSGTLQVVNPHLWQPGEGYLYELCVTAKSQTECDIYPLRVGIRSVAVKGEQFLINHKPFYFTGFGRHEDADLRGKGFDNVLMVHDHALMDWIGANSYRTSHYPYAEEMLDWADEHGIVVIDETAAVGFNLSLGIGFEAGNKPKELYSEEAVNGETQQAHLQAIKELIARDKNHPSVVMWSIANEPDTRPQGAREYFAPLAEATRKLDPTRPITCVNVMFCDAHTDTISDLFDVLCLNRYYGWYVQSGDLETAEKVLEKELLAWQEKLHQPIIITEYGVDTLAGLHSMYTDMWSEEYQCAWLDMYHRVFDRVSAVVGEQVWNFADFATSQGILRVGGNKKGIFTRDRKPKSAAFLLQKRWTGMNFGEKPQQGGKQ

Helix pomatia = test: Inhibition of snail beta-mannosidase assessed as reduction of p-nitrophenol release using p-nitrophenyl glycoside as substrate at 1000 uM by spectrophotometric analysis relative to control
[5] = Inhibition of rat intestinal maltase assessed as D-glucose release using maltose as substrate at pH 6.8 by colorimetric method
Bos taurus [6] = species: Bos taurus; test: Inhibition of bovine liver beta-galactosidase assessed as reduction of p-nitrophenol release using p-nitrophenyl glycoside as substrate at 1000 uM by spectrophotometric analysis relative to control
Penicillium decumbens = test: Inhibition of Penicillium decumbens alpha-L-rhamnosidase assessed as reduction of p-nitrophenol release using p-nitrophenyl-glycoside as substrate at 1000 uM by spectrophotometric analysis relative to control
[7] = molecular target: Alpha-galactosidase (Coffea arabica) (UniProt Q42656); test: Inhibition of coffee beans alpha-galactosidase assessed as reduction of p-nitrophenol release using p-nitrophenyl glycoside as substrate at 1000 uM by spectrophotometric analysis relative to control
Sequence of Alpha-galactosidase (Coffea arabica) (Q42656 16-378 limits assumed): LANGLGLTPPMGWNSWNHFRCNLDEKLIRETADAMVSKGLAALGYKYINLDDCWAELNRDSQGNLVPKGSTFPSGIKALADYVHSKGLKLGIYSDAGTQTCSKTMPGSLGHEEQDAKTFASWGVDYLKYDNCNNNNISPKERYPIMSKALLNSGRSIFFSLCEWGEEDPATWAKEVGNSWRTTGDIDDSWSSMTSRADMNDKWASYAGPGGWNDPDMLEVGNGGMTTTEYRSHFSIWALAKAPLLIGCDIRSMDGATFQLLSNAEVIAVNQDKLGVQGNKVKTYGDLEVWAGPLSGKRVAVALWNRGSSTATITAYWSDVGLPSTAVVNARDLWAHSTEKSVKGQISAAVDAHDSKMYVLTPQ

[8] = molecular target: Alpha-glucosidase (Saccharomyces cerevisiae S288c) (UniProt P53341+P38158+P07265); test: Inhibition of yeast alpha-glucosidase assessed as reduction of p-nitrophenol release using p-nitrophenyl glycoside as substrate at 1000 uM by spectrophotometric analysis relative to control; type: protein assay
Sus scrofa = species: Sus scrofa; test: Inhibition of porcine kidney alpha/alpha-trehalase assessed as reduction of p-nitrophenol release using p-nitrophenyl glycoside as substrate at 1000 uM by spectrophotometric analysis relative to control
Aspergillus niger = test: Inhibition of Aspergillus niger amyloglucosidase assessed as reduction of p-nitrophenol release using p-nitrophenyl-glycoside as substrate at 1000 uM by spectrophotometric analysis relative to control
[9] = Inhibition of human lysosomal beta-glucosidase assessed as reduction of p-nitrophenol release using p-nitrophenyl glycoside as substrate by spectrophotometric analysis
Prunus dulcis = test: Inhibition of almond beta-glucosidase assessed as reduction of p-nitrophenol release using p-nitrophenyl glycoside as substrate at 1000 uM by spectrophotometric analysis relative to control
Bos taurus [10] = species: Bos taurus; test: Inhibition of bovine liver beta-glucosidase assessed as reduction of p-nitrophenol release using p-nitrophenyl glycoside as substrate at 1000 uM by spectrophotometric analysis relative to control
[11] = molecular target: T2, Alpha-mannosidase (Canavalia ensiformis) (UniProt C0HJB3); test: Inhibition of jack bean alpha-mannosidase assessed as reduction of p-nitrophenol release using p-nitrophenyl glycoside as substrate at 1000 uM by spectrophotometric analysis relative to control
T2 sequence (whole entry): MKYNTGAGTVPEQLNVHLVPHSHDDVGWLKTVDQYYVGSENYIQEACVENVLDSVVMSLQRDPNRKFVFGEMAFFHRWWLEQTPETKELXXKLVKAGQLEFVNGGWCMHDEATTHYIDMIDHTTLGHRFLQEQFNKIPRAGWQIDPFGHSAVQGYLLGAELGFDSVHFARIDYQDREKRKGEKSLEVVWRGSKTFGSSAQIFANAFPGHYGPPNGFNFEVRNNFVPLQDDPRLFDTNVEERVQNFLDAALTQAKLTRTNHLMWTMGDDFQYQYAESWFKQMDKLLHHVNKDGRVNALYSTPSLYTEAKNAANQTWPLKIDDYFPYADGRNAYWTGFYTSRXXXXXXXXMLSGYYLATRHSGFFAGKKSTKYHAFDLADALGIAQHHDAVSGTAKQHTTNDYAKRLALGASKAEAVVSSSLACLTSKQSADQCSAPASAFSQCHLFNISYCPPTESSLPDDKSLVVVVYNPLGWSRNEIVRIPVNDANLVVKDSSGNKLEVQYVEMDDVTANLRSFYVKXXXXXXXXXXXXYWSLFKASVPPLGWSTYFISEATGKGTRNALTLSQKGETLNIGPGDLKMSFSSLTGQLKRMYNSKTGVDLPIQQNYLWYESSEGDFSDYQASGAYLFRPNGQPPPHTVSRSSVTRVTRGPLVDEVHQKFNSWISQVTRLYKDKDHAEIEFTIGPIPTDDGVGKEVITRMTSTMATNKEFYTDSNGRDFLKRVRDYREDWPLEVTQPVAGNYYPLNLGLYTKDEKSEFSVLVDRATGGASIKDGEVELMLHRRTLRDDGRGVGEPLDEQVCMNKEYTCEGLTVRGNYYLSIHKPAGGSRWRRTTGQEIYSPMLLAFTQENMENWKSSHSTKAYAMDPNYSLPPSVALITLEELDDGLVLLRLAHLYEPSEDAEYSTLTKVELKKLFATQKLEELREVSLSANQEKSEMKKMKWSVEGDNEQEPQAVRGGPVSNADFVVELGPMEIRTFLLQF

[12] = Inhibition of bovine liver beta-galactosidase assessed as reduction of p-nitrophenol release using p-nitrophenyl glycoside as substrate by spectrophotometric analysis; design: species or system Bos taurus
[13] = Inhibition of rice alpha-glucosidase assessed as reduction of p-nitrophenol release using p-nitrophenyl glycoside as substrate by spectrophotometric analysis; design: species or system Oryza sativa
[14] = Inhibition of bovine liver beta-glucuronidase assessed as reduction of p-nitrophenol release using p-nitrophenyl-glycoside as substrate by spectrophotometric analysis; design: species or system Bos taurus
[15] = molecular target: T3, Tissue alpha-L-fucosidase (Bos taurus, UniProt Q2KIM0); test: Inhibition of bovine kidney alpha-L-fucosidase assessed as reduction of p-nitrophenol release using p-nitrophenyl glycoside as substrate by spectrophotometric analysis
T3 sequence (Q2KIM0 whole entry): T1 sequence (whole entry)

Alpha-glucosidase = Alpha-glucosidase (Saccharomyces cerevisiae S288c, UniProt P53341+P38158+P07265); test: Inhibition of yeast alpha-glucosidase assessed as reduction of p-nitrophenol release using p-nitrophenyl glycoside as substrate by spectrophotometric analysis; type: protein assay
Beta-glucuronidase = Beta-glucuronidase (Escherichia coli (strain K12), UniProt P05804); test: Inhibition of Escherichia coli beta-glucuronidase assessed as reduction of p-nitrophenol release using p-nitrophenyl-glycoside as substrate by spectrophotometric analysis
Sequence of Beta-glucuronidase (P05804 whole entry): as the sequence (P05804 whole entry, looked up) above

[16] = Inhibition of bovine liver beta-glucosidase assessed as reduction of p-nitrophenol release using p-nitrophenyl glycoside as substrate by spectrophotometric analysis; design: species or system Bos taurus
[17] = Inhibition of Penicillium decumbens alpha-L-rhamnosidase assessed as reduction of p-nitrophenol release using p-nitrophenyl-glycoside as substrate by spectrophotometric analysis
[18] = Inhibition of almond beta-glucosidase assessed as reduction of p-nitrophenol release using p-nitrophenyl glycoside as substrate by spectrophotometric analysis; design: species or system Prunus dulcis
Rattus norvegicus = species: Rattus norvegicus; test: Inhibition of rat intestinal maltase assessed as D-glucose release using maltose as substrate at pH 6.8 at 1000 uM by colorimetric method relative to control
Alpha-mannosidase = molecular target: T4, Alpha-mannosidase (Canavalia ensiformis, UniProt C0HJB3); test: Inhibition of jack bean alpha-mannosidase assessed as reduction of p-nitrophenol release using p-nitrophenyl glycoside as substrate by spectrophotometric analysis
T4 sequence (C0HJB3 whole entry): T2 sequence (whole entry)

Alpha-galactosidase = Alpha-galactosidase (Coffea arabica, UniProt Q42656); test: Inhibition of coffee beans alpha-galactosidase assessed as reduction of p-nitrophenol release using p-nitrophenyl glycoside as substrate by spectrophotometric analysis
Sequence of Alpha-galactosidase (Q42656 whole entry): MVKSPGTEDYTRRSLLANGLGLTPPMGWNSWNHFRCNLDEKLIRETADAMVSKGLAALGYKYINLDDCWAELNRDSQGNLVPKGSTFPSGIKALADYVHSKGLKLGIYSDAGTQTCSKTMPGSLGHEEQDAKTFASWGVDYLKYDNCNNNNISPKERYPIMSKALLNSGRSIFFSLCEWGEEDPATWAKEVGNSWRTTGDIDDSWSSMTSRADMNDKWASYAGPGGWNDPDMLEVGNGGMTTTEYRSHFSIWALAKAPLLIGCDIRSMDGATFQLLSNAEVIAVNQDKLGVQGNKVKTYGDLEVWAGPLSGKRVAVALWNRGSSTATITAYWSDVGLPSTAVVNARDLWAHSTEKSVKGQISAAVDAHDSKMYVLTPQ

| SMILES | inhibition [2] [%] | inhibition (Bos taurus [3]) [%] | inhibition [4] [%] | inhibition (Helix pomatia) [%] | IC50 [5] [µM] | inhibition (Penicillium decumbens) [%] | inhibition [7] [%] | inhibition [8] [%] | inhibition (Sus scrofa) [%] | inhibition (Aspergillus niger) [%] | IC50 [9] [µM] | inhibition (Prunus dulcis) [%] | inhibition (Bos taurus [10]) [%] | inhibition [11] [%] | IC50 [12] [µM] | IC50 [13] [µM] | IC50 (Beta-glucuronidase) [µM] | IC50 [16] [µM] | IC50 [17] [µM] | IC50 [18] [µM] | also measured |
| --- | --- | --- | --- | --- | --- | --- | --- | --- | --- | --- | --- | --- | --- | --- | --- | --- | --- | --- | --- | --- | --- |
| CCCCCCCCCCCCCC1N[C@H](CO)[C@@H](O)[C@@H]1O (some centres undefined) |  |  |  |  |  |  |  |  |  |  |  |  |  |  |  |  |  |  |  |  | IC50 [1]: 0.77 µM |
| Cl.OC[C@@H]1N[C@@H](CCCCCCCc2ccccc2)[C@H](O)[C@H]1O |  | 41.5 |  | 6.7 | 1.9 |  | 12.1 |  | 5.6 | 7.2 |  |  |  | 14.7 | 16 | 11 | 133 | 305 | 409 | 206 | IC50 [15]: 91 µM; IC50 (Alpha-glucosidase): 802 µM |

Now from value to compound, other results behind:

| inhibition [2] [%] | inhibition (Bos taurus [3]) [%] | inhibition [4] [%] | inhibition (Helix pomatia) [%] | IC50 [5] [µM] | inhibition (Penicillium decumbens) [%] | inhibition [7] [%] | inhibition [8] [%] | inhibition (Sus scrofa) [%] | inhibition (Aspergillus niger) [%] | IC50 [9] [µM] | inhibition (Prunus dulcis) [%] | inhibition (Bos taurus [10]) [%] | inhibition [11] [%] | IC50 [12] [µM] | IC50 [13] [µM] | IC50 (Beta-glucuronidase) [µM] | IC50 [16] [µM] | IC50 [17] [µM] | IC50 [18] [µM] | SMILES | also measured |
| --- | --- | --- | --- | --- | --- | --- | --- | --- | --- | --- | --- | --- | --- | --- | --- | --- | --- | --- | --- | --- | --- |
| 0 | 0 | 4.8 | 0.4 | 28 | 0 | 1.3 | 11.4 | 0 | 8.7 | 109 | 9.6 | 21 | 0.8 |  |  |  |  |  |  | OC[C@@H]1N[C@@H]([C@H](O)CCCCCCc2ccc(Cl)cc2)[C@H](O)[C@H]1O | inhibition (Oryza sativa): 34%; inhibition (Bos taurus [6]): 37.3% |
| 0 |  | 24.5 | 0 | 13 | 2.1 | 1.6 | 37.6 | 0 | 11.3 | 25 | 14.7 | 45.4 | 9.3 | 46 | 63 |  |  |  |  | Cc1ccc(CCCCCC[C@@H](O)[C@@H]2N[C@@H](CO)[C@H](O)[C@H]2O)cc1 | IC50 [14]: 65 µM |
| 32.7 | 12.7 |  | 3.6 |  |  |  | 21.1 | 3.5 | 6 | 5.2 |  |  |  | 22 | 85 | 75 | 64 | 313 | 464 | OC[C@H]1N[C@H](CCCCCCCc2ccccc2)[C@@H](O)[C@H]1O | inhibition (Rattus norvegicus): 43.3%; IC50 (Alpha-mannosidase): 274 µM; IC50 (Alpha-galactosidase): 41 µM |

— ChEMBL document CHEMBL5331098, “Nanomolar β-glucosidase and β-galactosidase inhibition by enantiomeric α-1-C-alkyl-1,4-dideoxy-1,4-imino-arabinitol derivatives” (Eur J Med Chem, 2023)
